For one assay, the target named is GTPase KRas (Homo sapiens, UniProt P01116, G12V). As to the kind of experiment: Induction of KRAS G12V mutant degradation in human SW1990 cells incubated for 24 hrs. The format is cell-based.
Assay [1] can be described thus: Binding affinity to 6His-tagged KRAS G12V mutant /GST-tagged RAF1 (unknown origin) incubated for 60 mins by fluorescence based microplate reader assay. Also on record: species or system Homo sapiens.

pIC50: −log10 of the molar value.

The DC50 is the concentration giving 50% degradation. High values mean degradation only at high concentration, low ones degradation at low concentration. Broadly, the pIC50 is the IC50 on a negative log10 scale, so that one unit is a factor of ten.

Chain of GTPase KRas (P01116 whole entry G12V): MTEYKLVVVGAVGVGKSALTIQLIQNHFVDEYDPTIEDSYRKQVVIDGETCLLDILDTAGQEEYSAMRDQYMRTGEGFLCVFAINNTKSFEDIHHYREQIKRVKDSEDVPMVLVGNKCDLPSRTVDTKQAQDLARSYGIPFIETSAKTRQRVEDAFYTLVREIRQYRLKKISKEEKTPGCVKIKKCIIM

With `CCc1cccc2cc(O)cc(-c3ncc4c(N5CCC[C@@](C)(O)C5)nc(OCC5(CN6CCC(OC7CCN(c8ccc9c(c8)CN(C8CCC(=O)NC8=O)C9=O)CC7)CC6)CC5)nc4c3F)c12` (some centres not stated), on GTPase KRas, the DC50 was ≤ 1 nM. The compound further gave a pIC50 in assay [1] of 7.70.
`CCc1c(F)ccc2cc(O)cc(-c3ncc4c(N5CCC[C@]6(CCO6)C5)nc(OCC5(CN6CCC(CN7CCN(c8ccc9c(c8)CN([C@H]8CCC(=O)NC8=O)C9=O)CC7)CC6)CC5)nc4c3F)c12` displayed a DC50 on GTPase KRas of 1 nM. The same compound showed a pIC50 in assay [1] of 7.70.
In the case of `CCc1c(F)ccc2cc(O)cc(-c3ncc4c(N5CCC[C@@](C)(O)C5)nc(OCC5(CN6CCC7(CC6)CC(N6CCN(c8ccc9c(c8)CN([C@H]8CCC(=O)NC8=O)C9=O)CC6)C7)CC5)nc4c3F)c12`, the DC50 on GTPase KRas is ≤ 1 nM. Moreover, the pIC50 in assay [1] was ≥ 7.70.
Consider `CCc1c(F)ccc2cc(O)cc(-c3ncc4c(N5CCC[C@@](C)(O)C5)nc(OCC5(CN6CCC(OC7CCN(C8CCN(c9ccc%10c(c9)CN(C9CCC(=O)NC9=O)C%10=O)CC8)CC7)CC6)CC5)nc4c3F)c12` (some centres not stated), for which the DC50 on GTPase KRas was ≤ 1 nM. Also, the pIC50 in assay [1] is ≥ 7.70.
For `CCc1c(F)ccc2cc(O)cc(-c3ncc4c(N5CCC[C@@](C)(O)C5)nc(OCC5(CN6CC(N7CCC(N8CCN(c9ccc%10c(c9)CN([C@H]9CCC(=O)NC9=O)C%10=O)CC8)CC7)C6)CC5)nc4c3F)c12`, the DC50 at GTPase KRas was ≤ 1 nM. Besides, the pIC50 in assay [1] was ≥ 7.70.
The corresponding values for `CCc1c(F)ccc2cc(O)cc(-c3ncc4c(N5CCC[C@@](C)(O)C5)nc(OCC5(CN6CCC(C)(CN7CC8(CCN(c9ccc%10c(c9)CN([C@H]9CCC(=O)NC9=O)C%10=O)CC8)C7)CC6)CC5)nc4c3F)c12` are ≤ 1 nM and ≥ 7.70.

For the origin of these results see ChEMBL document CHEMBL5584285, “Advancements in Protein Degradation for Cancer Therapy” (ACS Med Chem Lett, 2024).
